According to ChEMBL document CHEMBL5346964, “Discovery of LNP1892: A Precision Calcimimetic for the Treatment of Secondary Hyperparathyroidism” (J Med Chem, 2023):

Columns and labels:
[1] = Half life in Sprague-Dawley rat at 1 mg/kg, iv measured upto 24 hrs by LC-MS/MS analysis; assay type: ADME, organism-based; conditions: in vivo
[2] = AUClast in Sprague-Dawley rat at 10 mg/kg, po administered as suspension measured upto 24 hrs by LC-MS/MS analysis; assay type: ADME, organism-based; parameters: dose 10 mg/kg, time < 24 hrs, route po; conditions: in vivo
[3] = Volume of distribution at steady state in Sprague-Dawley rat at 10 mg/kg, po administered as solution measured upto 24 hrs by LC-MS/MS analysis; assay type: ADME, organism-based; conditions: in vivo
[4] = Effect on parathyroid hormone in overnight fasted Sprague-Dawley rat assessed as reduction in plasma PTH level at 10 mg/kg, po measured after 0.5 hrs of post treatment by sandwich ELISA analysis; assay type: functional; parameters: scale not given: the % may be the effect or the level left
[5] = Effect on parathyroid hormone in overnight fasted Sprague-Dawley rat assessed as reduction in plasma PTH level at 3 mg/kg, po measured after 0.5 hrs of post treatment by sandwich ELISA analysis; assay type: functional; parameters: scale not given: the % may be the effect or the level left
[6] = system: Rattus norvegicus; test: Acute effect on parathyroid hormone in overnight fasted adenine diet-induced chronic kidney disease Wistar rat model assessed as reduction in plasma PTH level at 3 mg/kg, po measured after 4 hrs of post treatment by sandwich ELISA analysis; assay type: functional; parameters: scale not given: the % may be the effect or the level left
[7] = system: Rattus norvegicus; test: Acute effect on parathyroid hormone in overnight fasted adenine diet-induced chronic kidney disease Wistar rat model assessed as reduction in plasma PTH level at 10 mg/kg, po measured after 4 hrs of post treatment by sandwich ELISA analysis; assay type: functional; parameters: scale not given: the % may be the effect or the level left
[8] = system: Rattus norvegicus; test: Chronic effect on parathyroid hormone in overnight fasted adenine diet-induced chronic kidney disease Wistar rat model plasma assessed as reduction in plasma PTH level at 1 mg/kg, po qd measured after 27 days of post treatment by sandwich ELISA analysis; assay type: functional; parameters: scale not given: the % may be the effect or the level left; conditions: time 27 day
[9] = Tmax in Sprague-Dawley rat at 10 mg/kg; assay type: ADME, organism-based; conditions: in vivo
[10] = AUC(0 to 24 hrs) in Sprague-Dawley rat at 30 mg/kg; assay type: ADME, organism-based; parameters: dose 30 mg/kg; conditions: in vivo
[11] = AUC(0 to 24 hrs) in Sprague-Dawley rat at 100 mg/kg; assay type: ADME, organism-based; parameters: dose 100 mg/kg; conditions: in vivo
[12] = Metabolic stability in rat liver S9 fraction measured upto 60 mins by LC-MS/MS method; assay type: ADME, subcellular; conditions: read-out: Stability
[13] = Metabolic stability in mouse liver cytosol measured upto 60 mins by LC-MS/MS method; assay type: ADME, subcellular; conditions: read-out: Stability
[14] = Metabolic stability in human liver cytosol measured upto 60 mins by LC-MS/MS method; assay type: ADME, subcellular; conditions: read-out: Stability
[15] = Stability in monkey plasma measured up to 4 hrs by LC-MS/MS method; assay type: ADME, cell-free, Macaca mulatta; conditions: rhesus monkey, read-out: Stability
[16] = Stability in human liver microsomes assessed as parent compound remaining measured after 60 mins in presence of NADPH by LC-MS/MS analysis; assay type: ADME, Microsome; conditions: read-out: Stability
[17] = biological target: CYP2E1 (Homo sapiens, UniProt P05181); test: Inhibition of CYP2E1 in human liver microsomes at 10 uM preincubated for 5 mins followed by NADPH addition by LC-MS/MS analysis relative to control; assay type: ADME, Microsome
[18] = biological target: T1, Cytochrome P450 2B6 (Homo sapiens, UniProt P20813); test: Inhibition of CYP2B6 in human liver microsomes preincubated for 5 mins followed by NADPH addition by LC-MS/MS analysis; assay type: ADME, Microsome
T1 sequence (P20813 whole entry): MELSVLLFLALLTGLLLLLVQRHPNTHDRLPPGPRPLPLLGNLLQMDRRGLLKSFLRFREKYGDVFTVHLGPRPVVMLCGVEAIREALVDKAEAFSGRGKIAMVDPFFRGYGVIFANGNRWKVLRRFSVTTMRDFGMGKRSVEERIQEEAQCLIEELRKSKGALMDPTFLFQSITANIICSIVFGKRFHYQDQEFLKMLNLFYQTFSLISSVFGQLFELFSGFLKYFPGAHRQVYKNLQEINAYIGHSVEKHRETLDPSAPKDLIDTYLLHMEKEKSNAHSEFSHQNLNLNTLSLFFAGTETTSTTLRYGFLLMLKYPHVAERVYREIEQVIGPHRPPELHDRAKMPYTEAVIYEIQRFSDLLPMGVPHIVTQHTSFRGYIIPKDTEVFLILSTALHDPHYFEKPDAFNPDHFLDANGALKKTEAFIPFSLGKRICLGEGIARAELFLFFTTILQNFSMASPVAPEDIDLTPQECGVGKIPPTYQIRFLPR

[19] = Kinetic solubility of compound upto 500 uM at pH 4 measured after 16 hrs under shaking condition by UV-visible method; assay type: physicochemical; conditions: buffer, read-out: Kinetic_solubility
[20] = Kinetic solubility of compound in SIF upto 500 uM measured after 16 hrs under shaking condition by UV-visible method; assay type: physicochemical; conditions: read-out: Kinetic_solubility
[21] = Kinetic solubility of compound in water upto 500 uM measured after 16 hrs under shaking condition by UV-visible method; assay type: physicochemical; conditions: read-out: Kinetic_solubility
[22] = Chemical stability of the compound in 0.1N HCL measured after 0.5 to 4 hrs; assay type: physicochemical; conditions: buffer; time 0.5-4 hrs
[23] = Oral bioavailability in BALB/c mouse at 10 mg/kg measured upto 24 hrs by LC/MS-MS analysis; assay type: ADME, organism-based; conditions: in vivo
[24] = Half life in cynomolgus monkey at 1 mg/kg, iv measured upto 24 hrs by LC/MS-MS analysis; assay type: ADME, organism-based, Macaca fascicularis; conditions: in vivo
[25] = Tmax in Sprague-Dawley rat at 10 mg/kg, po measured upto 24 hrs by LC/MS-MS analysis; assay type: ADME, organism-based; conditions: in vivo
[26] = Cmax in BALB/c mouse at 10 mg/kg, po measured upto 24 hrs by LC/MS-MS analysis; assay type: ADME, organism-based; parameters: dose 10 mg/kg, time < 24 hrs, route po; conditions: in vivo
[27] = Drug excretion in BALB/c mouse assessed as drug recovery in feces at 1 mg/kg, iv; assay type: ADME, organism-based; conditions: faeces, read-out: Drug recovery
[28] = Drug excretion in rat assessed as drug recovery in feces at 1 mg/kg, iv; assay type: ADME, organism-based; conditions: faeces, read-out: Drug recovery
[29] = Ratio of drug concentration in blood to thyroid in Sprague-Dawley rat at 10 mg/kg, po measured upto 24 hrs by LC-MS/MS analysis; assay type: ADME, organism-based; conditions: in vivo
[30] = Cmax in rat at 25 mg/kg per day, po via gavage administered for 13 weeks; assay type: ADME, organism-based; parameters: time 13 weeks, dose 25 mg/kg, route po; conditions: in vivo
[31] = Cmax in mouse at 50 mg/kg per day, po via gavage administered for 13 weeks; assay type: ADME, organism-based; parameters: time 13 weeks, dose 50 mg/kg, route po; conditions: in vivo
[32] = Toxicity in monkey assessed as NOAEL; parameters: species or system Macaca mulatta; conditions: rhesus monkey, in vivo
[33] = AUC(0 to t) in human at 25 mg/kg, po administered as single dose; assay type: ADME, organism-based; parameters: dose 25 mg/kg, route po; conditions: in vivo
[34] = biological target: T2, Adenosine receptor A1 (Homo sapiens) (UniProt P30542); test: Inhibition of human recombinant A1 receptor at 10 uM relative to control
T2 sequence (whole entry): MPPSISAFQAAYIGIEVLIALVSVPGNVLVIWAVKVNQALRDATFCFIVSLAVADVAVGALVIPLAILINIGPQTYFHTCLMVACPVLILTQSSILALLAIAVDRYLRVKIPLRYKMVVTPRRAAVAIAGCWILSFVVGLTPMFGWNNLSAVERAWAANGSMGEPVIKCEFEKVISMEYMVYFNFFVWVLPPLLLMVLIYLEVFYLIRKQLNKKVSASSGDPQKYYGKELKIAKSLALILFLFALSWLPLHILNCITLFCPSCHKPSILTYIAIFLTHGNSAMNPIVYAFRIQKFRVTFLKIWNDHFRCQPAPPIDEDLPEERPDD

CYP2E1, sequence (P05181 whole entry): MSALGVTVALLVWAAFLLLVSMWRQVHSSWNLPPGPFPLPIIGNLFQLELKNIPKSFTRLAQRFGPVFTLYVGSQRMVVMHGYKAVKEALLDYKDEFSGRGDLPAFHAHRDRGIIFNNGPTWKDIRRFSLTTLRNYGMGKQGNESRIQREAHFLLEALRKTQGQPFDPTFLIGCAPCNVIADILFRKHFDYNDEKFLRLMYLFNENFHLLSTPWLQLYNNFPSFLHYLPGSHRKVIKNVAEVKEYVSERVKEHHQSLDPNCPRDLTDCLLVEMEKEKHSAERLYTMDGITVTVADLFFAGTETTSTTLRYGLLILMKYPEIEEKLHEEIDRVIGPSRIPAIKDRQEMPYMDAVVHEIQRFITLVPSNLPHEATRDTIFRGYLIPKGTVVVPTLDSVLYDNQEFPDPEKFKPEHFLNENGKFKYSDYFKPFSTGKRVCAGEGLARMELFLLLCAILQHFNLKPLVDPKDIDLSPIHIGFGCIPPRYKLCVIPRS

With `Cc1ccc([C@@H]2C[C@H](CN[C@H](C)c3cccc4ccccc34)Oc3ccccc32)cc1C(=O)O.Cl` the half-life [1] was 4 h, the AUC(0-t) at 24 h [2] was 23 µM·h and the Vdss [3] was 0.6 L/kg. For the same molecule, the Activity [4] was 100%, the Activity [5] was 100% and the Activity [6] was 89%. It also gave an Activity [7] of 97%, an Activity [8] of 65% and a Tmax [9] of 1 h. For the same molecule, the AUC(0-t) [10] was 116 µM·h, the AUC(0-t) [11] was 426 µM·h and the remaining at 1 h [12] was greater than 80%. The remaining at 1 h [13] was greater than 80%, the remaining at 1 h [14] was greater than 80% and the remaining at 4 h [15] was greater than 80%. The remaining at 1 h [16] was roughly 30%, the inhibition at 10 µM [17] was 0% and the IC50 [18] was 64 µM. The solubility kinetic at 16 h, 500 µM [19] was greater than 300 µM, the solubility kinetic at 16 h, 500 µM [20] was greater than 300 µM and the solubility kinetic at 16 h, 500 µM [21] was greater than 300 µM. The Stability [22] was “Stable”, the bioavailability [23] was 100% and the half-life [24] was 5 h. It also gave a Tmax [25] of 0.6 h, a Cmax [26] of 31 µM and a dose excreted [27] of 27%. It also gave a dose excreted [28] of 10%, a Ratio [29] of 0.3 and a Cmax [30] of 9660 ng/mL. The Cmax [31] was 34800 ng/mL, the NOAEL [32] was 50 mg/kg/day and the AUC(0-t) [33] was 2930 ng·h/mL. The inhibition [34] was greater than 50%.
